From publication PMC12430429, “Synthesis, Structure, DNA/BSA Binding, DNA Cleaving, Cytotoxic and SOD Mimetic Activities of Copper(II) Complexes Derived from Methoxybenzylamine Schiff Base Ligands” (Molecules, 2025)
Read-outs that look alike come from different tables or passages of the source.

What was measured:
[1] = SOD mimetic activity / radical scavenging assay (INT method); type: biochemical
Protocol: The radical scavenging ability with respect to the SOD mimetic activity of the prepared complexes was determined by the INT method. This method is based on a competitive reaction with the superoxide anion radical from KO2 between the measured compound (complex) and 2-(4-Iodophenyl)-3-(4-nitrophenyl)-5-phenyl-2H-tetrazolium chloride (INT). INT reacts with the single electron of O2^− and produces blue-green formazane detected as light absorption at 500 nm. Complexes with good antiradical activity also react with O2^−, and as a result of this, less formazane is formed.
The first type of antiradical activity measurements involved the determination of inhibition percent values of electron transfer on INT at specific concentrations (Table 9). Two concentrations were selected to achieve good solubility of the complexes (4 and 1 mM for 4a and 4c, 2 and 1 mM for 4b). The complex 4b dissolved readily at a concentration of 4 mM, but the mixture was very dark, making measurements at 500 nm difficult. Therefore, a less concentrated initial solution was used (2 mM) as the higher concentration. In total, 0.5 mL of the initial solutions was used to prepare sample solutions that also contained INT and KO2 solutions and DMSO with an overall volume of 3.5 mL. The resulting concentrations were c1 = 0.572 mM, c1* = 0.286 mM and c2 = 0.143 mM, respectively. Complexes 4a and 4c once again provided high percentages at c1 (approximately 96–99%) but the activity dropped below 24% at c2, while complex 4b maintained mediocre activity at both concentrations. It seems that the concentration increase had only a small effect on the activity of 4b; something similar was also observed in the DNA cleavage study for complex 4b. The complexes were compared with the model compound cystamine, which was used as a standard for superoxide antiradical scavenging due to the presence of a free […] group, which is also present in glutathione.
To improve the comparability of SOD mimetic activity, IC50 concentrations were determined by performing a series of measurements with decreasing concentration. IC50 values were calculated from the trend function equation as the concentration with 50% inhibition of electron transfer on INT (Table 10).
The method is based on the agent 2-(4-Iodophenyl)-3-(4-nitrophenyl)-5-phenyl-2H-tetrazolium chloride (INT), able to scavenge a superoxide radical anion from KO2. The reaction produces a blue-green formazane, which is detected as light absorption at 500 nm. The radical scavengers (measured complexes) compete with INT for radicals and reduce the formation of formazane and light absorption at 500 nm. Antiradical activity was measured on a Synergy HT BioTek spectrophotometer. DMSO was used as the solvent for the complex and KO2 (saturated solution). The INT initial solution (4 M) was prepared in a sodium tetraborate buffer solution with pH adjusted to 7.1 with HCl.
For each measurement, an initial solution of the sample (0.5 mL) of a specific concentration (4–0.1 mM) was prepared in DMSO. Due to the addition of INT (0.5 mL) and KO2 (0.5 mL) solutions and additional DMSO (2 mL), the concentrations of the measured complexes decreased seven times (3.5 mL of total mixture). Each result was the average value of three parallel measurements expressed with a standard deviation (more information in the Supplementary Materials). For the determination of SOD-IC50, several measurements with decreasing sample concentration were performed. […] A linear trend function of the percentage of inhibition and negative logarithm of concentration was used to calculate the SOD-IC50 value as the concentration with 50% inhibition of INT–formazane formation. […]
Green: 5c 5 mM (S. cerevisiae 1x10^9 cells /ml + 0.5 ml 0.9% NaCl + 0.5 ml 5c + 0.1 ml Resazurin OX) measured in time
S6. SOD Mimetic A ctivity A ssay
For each measurement, an initial solution of the sample of a specific concentration was prepared […]

[2] = system: A549 cells; assay: MTT cytotoxicity assay, A549; type: cell-based, human; settings: 72 h
Protocol: (§1) The cytotoxicity study of the prepared copper(II) complexes was performed using the MTT assay on human cell lines—A549 (adenocarcinoma human alveolar basal epithelial cell line), HepG2 (human liver cancer cell line) and HEL (human lung fibroblast cell line, normal cells).
(§2) The cytotoxicity of the prepared copper(II) complexes in human cell lines was evaluated using the 3-(4,5-dimethylthiazol-2-yl)-2,5-diphenyltetrazolium bromide (MTT) assay following the protocol by Mosmann. Briefly, A549 (human lung epithelial cells, carcinoma), HepG2 (human liver epithelial cells, carcinoma) and HEL (human lung fibroblast cells, normal) cells were seeded in plastic 96-well plates at a density of 1.5–2 × 10^4 cells per well. […] After the treatment, the samples were washed with phosphate-buffered saline (PBS), followed by 4 h of incubation with 1 mg/mL of MTT. Subsequently, the MTT solution was removed, and the formed formazane solids were dissolved in dimethyl sulfoxide for 30 min. The photometric evaluation (at 540 nm and 690 nm) was carried out using an xMark™ Microplate Absorbance Spectrophotometer (Bio-Rad, Hercules, CA, USA) [88].
(§3) A549 (ATCC® CCL-185), HepG2 (ATCC® HB-8065) and HEL299 (ATCC® CCL-137) cells were obtained from Lambda Life (Bratislava, Slovakia). A549 cells were kept in Dulbecco’s Modified Eagle’s Medium (DMEM) supplemented with 10% fetal bovine serum (FBS) and 1% antibiotics (penicillin and streptomycin). HepG2 cells were kept in Williams medium supplemented with 10% fetal bovine serum (FBS) and 1% antibiotics (penicillin and streptomycin). HEL299 cells were kept in Minimum Essential Medium (MEM) supplemented with 10% fetal bovine serum (FBS), 1% antibiotics (penicillin and streptomycin) and 1% non-essential amino acids (NEAA). The cells were cultured in a humidified atmosphere of 5% CO2 at 37 °C. Once the cells reached approximately 80% confluence, they were harvested and subcultured after trypsin treatment.

[3] = system: HepG2 cells; assay: MTT cytotoxicity assay, HepG2; type: cell-based, human; settings: 72 h
Protocol: as §1, §2, §3

[4] = system: HEL cells (human lung fibroblast, normal); assay: MTT cytotoxicity assay, HEL; type: cell-based; settings: 72 h
Protocol: as §1, §2, §3

| IC50 ([1]; 50% inhibition of electron transfer on INT, read-out: SOD-IC50) [µM] | IC50 ([1]; INT method, read-out: concentration of 50% inhibition (SOD-IC50), given as range) [µM] | SMILES | Activity at c1 (%), inhibition of radical transfer to INT ([1]; c1 = 0.572 mM) [%] | Activity at c2 (%), inhibition of radical transfer to INT ([1]; c2 = 0.143 mM) [%] | IC50 [2] [µM] | IC50 [3] [µM] | IC50 [4] [µM] |
| --- | --- | --- | --- | --- | --- | --- | --- |
| 1700 ± 100 | > 1000 | NCCSSCCN [cystamine, reference compound] | 22.1 ± 1.8 | 2.0 ± 0.0 |  |  |  |
|  |  | N.N.[Cl][Pt][Cl] [cisplatin, reference compound] |  |  | 26.2 ± 4.1 | 16 ± 3.4 | 68.4 ± 0.3 |
